Nc1cc(Cl)ccc1C(=O)O
Conditions | solubility (mole fraction)
in 1,4-dioxane, 283.15 K | 0.0158
in 1,4-dioxane, 285.65 K | 0.0173
in 1,4-dioxane, 288.15 K | 0.0191
in 1,4-dioxane, 290.65 K | 0.0209
in 1,4-dioxane, 293.15 K | 0.0228
in 1,4-dioxane, 295.65 K | 0.0248
in 1,4-dioxane, 298.15 K | 0.0271
in 1,4-dioxane, 300.65 K | 0.0295
in 1,4-dioxane, 303.15 K | 0.032
in 1,4-dioxane, 305.65 K | 0.0348
in 1,4-dioxane, 308.15 K | 0.0375
in 1,4-dioxane, 310.65 K | 0.0405
in 1,4-dioxane, 313.15 K | 0.0436
in NMP, 278.15 K | 0.0323
in NMP, 280.65 K | 0.0338
in NMP, 283.15 K | 0.0354
in NMP, 285.65 K | 0.037
in NMP, 288.15 K | 0.0388
in NMP, 290.65 K | 0.0406
in NMP, 293.15 K | 0.0425
in NMP, 295.65 K | 0.0445
in NMP, 298.15 K | 0.0465
in NMP, 300.65 K | 0.0487
in NMP, 305.65 K | 0.0531
in NMP, 308.15 K | 0.0556
in NMP, 310.65 K | 0.0581
in NMP, 313.15 K | 0.0607
in acetone, 278.15 K | 0.0159
in acetone, 280.65 K | 0.0174
in acetone, 283.15 K | 0.0189
in acetone, 285.65 K | 0.0207
in acetone, 288.15 K | 0.0226
in acetone, 290.65 K | 0.0243
in acetone, 293.15 K | 0.0261
in acetone, 295.65 K | 0.0283
in acetone, 298.15 K | 0.0307
in acetone, 300.65 K | 0.0328
in acetone, 303.15 K | 0.0351
in acetone, 305.65 K | 0.0378
in acetone, 308.15 K | 0.0404
in acetone, 310.65 K | 0.0433
in acetone, 313.15 K | 0.0463
in acetonitrile, 278.15 K | 0.00138
in acetonitrile, 280.65 K | 0.00154
in acetonitrile, 283.15 K | 0.00169
in acetonitrile, 285.65 K | 0.00188
in acetonitrile, 288.15 K | 0.00208
in acetonitrile, 290.65 K | 0.00229
in acetonitrile, 293.15 K | 0.00252
in acetonitrile, 295.65 K | 0.00277
in acetonitrile, 298.15 K | 0.00303
in acetonitrile, 300.65 K | 0.00332
in acetonitrile, 303.15 K | 0.00362
in acetonitrile, 305.65 K | 0.00395
in acetonitrile, 308.15 K | 0.00431
in acetonitrile, 310.65 K | 0.00468
in acetonitrile, 313.15 K | 0.0051
in ethanol, 278.15 K | 0.00994
in ethanol, 280.65 K | 0.0109
in ethanol, 283.15 K | 0.0118
in ethanol, 285.65 K | 0.0129
in ethanol, 288.15 K | 0.014
in ethanol, 290.65 K | 0.0151
in ethanol, 293.15 K | 0.0164
in ethanol, 295.65 K | 0.0177
in ethanol, 298.15 K | 0.0191
in ethanol, 300.65 K | 0.0205
in ethanol, 303.15 K | 0.0221
in ethanol, 305.65 K | 0.0238
in ethanol, 308.15 K | 0.0255
in ethanol, 310.65 K | 0.0273
in ethanol, 313.15 K | 0.0293
in ethyl acetate, 278.15 K | 0.0125
in ethyl acetate, 280.65 K | 0.0136
in ethyl acetate, 283.15 K | 0.0149
in ethyl acetate, 285.65 K | 0.0161
in ethyl acetate, 288.15 K | 0.0176
in ethyl acetate, 290.65 K | 0.0191
in ethyl acetate, 293.15 K | 0.0206
in ethyl acetate, 295.65 K | 0.0222
in ethyl acetate, 298.15 K | 0.0241
in ethyl acetate, 300.65 K | 0.0259
in ethyl acetate, 303.15 K | 0.0278
in ethyl acetate, 308.15 K | 0.0321
in ethyl acetate, 310.65 K | 0.0343
in ethyl acetate, 313.15 K | 0.0368
in ethylbenzene, 278.15 K | 0.00011
in ethylbenzene, 280.65 K | 0.00013
in ethylbenzene, 283.15 K | 0.000149
in ethylbenzene, 285.65 K | 0.000172
in ethylbenzene, 288.15 K | 0.000196
in ethylbenzene, 290.65 K | 0.000224
in ethylbenzene, 293.15 K | 0.000255
in ethylbenzene, 295.65 K | 0.00029
in ethylbenzene, 298.15 K | 0.000326
in ethylbenzene, 300.65 K | 0.000371
in ethylbenzene, 303.15 K | 0.000418
in ethylbenzene, 305.65 K | 0.000472
in ethylbenzene, 308.15 K | 0.000528
in ethylbenzene, 310.65 K | 0.000594
in ethylbenzene, 313.15 K | 0.000664
in isopropanol, 278.15 K | 0.00925
in isopropanol, 280.65 K | 0.0101
in isopropanol, 283.15 K | 0.0111
in isopropanol, 285.65 K | 0.012
in isopropanol, 288.15 K | 0.0131
in isopropanol, 290.65 K | 0.0143
in isopropanol, 293.15 K | 0.0155
in isopropanol, 295.65 K | 0.0167
in isopropanol, 298.15 K | 0.0181
in isopropanol, 300.65 K | 0.0195
in isopropanol, 303.15 K | 0.0211
in isopropanol, 305.65 K | 0.0227
in isopropanol, 308.15 K | 0.0244
in isopropanol, 310.65 K | 0.0262
in isopropanol, 313.15 K | 0.0282
in n-butanol, 278.15 K | 0.00768
in n-butanol, 280.65 K | 0.0084
in n-butanol, 283.15 K | 0.00925
in n-butanol, 285.65 K | 0.0102
in n-butanol, 288.15 K | 0.0111
in n-butanol, 290.65 K | 0.0121
in n-butanol, 293.15 K | 0.0132
in n-butanol, 295.65 K | 0.0144
in n-butanol, 298.15 K | 0.0157
in n-butanol, 300.65 K | 0.017
in n-butanol, 303.15 K | 0.0184
in n-butanol, 305.65 K | 0.0199
in n-butanol, 308.15 K | 0.0215
in n-butanol, 310.65 K | 0.0232
in n-butanol, 313.15 K | 0.025
in n-propanol, 278.15 K | 0.00869
in n-propanol, 280.65 K | 0.0095
in n-propanol, 283.15 K | 0.0103
in n-propanol, 285.65 K | 0.0113
in n-propanol, 288.15 K | 0.0123
in n-propanol, 290.65 K | 0.0134
in n-propanol, 293.15 K | 0.0144
in n-propanol, 295.65 K | 0.0157
in n-propanol, 298.15 K | 0.017
in n-propanol, 300.65 K | 0.0184
in n-propanol, 303.15 K | 0.0198
in n-propanol, 305.65 K | 0.0214
in n-propanol, 308.15 K | 0.023
in n-propanol, 310.65 K | 0.0248
in n-propanol, 313.15 K | 0.0266
in toluene, 278.15 K | 0.000136
in toluene, 280.65 K | 0.000157
in toluene, 283.15 K | 0.00018
in toluene, 285.65 K | 0.000204
in toluene, 288.15 K | 0.000233
in toluene, 290.65 K | 0.000266
in toluene, 293.15 K | 0.000299
in toluene, 295.65 K | 0.000339
in toluene, 298.15 K | 0.000384
in toluene, 300.65 K | 0.000427
in toluene, 303.15 K | 0.000478
in toluene, 305.65 K | 0.000533
in toluene, 308.15 K | 0.000597
in toluene, 310.65 K | 0.000668
in toluene, 313.15 K | 0.000742
